Assay results: patent publication US20250170101A1, “MONOACYLGLYCEROL LIPASE INHIBITORS AND USE THEREOF FOR THE TREATMENT AND MANAGEMENT OF PAIN AND RELATED CONDITIONS” (Psy Therapeutics, Inc., priority 2021, published 2025)

Legend:
[1] = Pharmacokinetic study of compounds in mice, Example 25; type: in vivo, male C57BL/6 mice; details: Brain, Oral, 5 mg/kg
Procedure: Healthy male C57BL/6 mice (8-12 weeks old) weighing between 17 to 35 g were procured from Global, India. Temperature and humidity were maintained at 22±3° C. and 30-70%, respectively and illumination was controlled to give a sequence of 12 hr light and 12 hr dark cycle. Temperature and humidity were recorded by auto-controlled data logger system. All the animals were provided laboratory rodent diet. Reverse osmosis water treated with ultraviolet light was provided ad libitum.
Protocol A: Twenty-four male mice were divided into two groups as; Group 1: 30 mg/kg/IP; Plasma and brain; Number of animals=12; Animal #1-12. Group 2: 30 mg/kg/PO; Plasma and brain; Number of animals=12; Animal #13-24. […] All samples were processed for analysis by protein precipitation using acetonitrile and analyzed with fit-for-purpose LC/MS/MS method (LLOQ—2.02 ng/mL for plasma and 6.06 ng/g for brain). Pharmacokinetic parameters were calculated using the non-compartmental analysis tool of Phoenix WinNonlin®.
Protocol B: Thirty six mice were included into the study and divided in to three groups as Group 1 (n=12), Group 2 (n=12) and Group 3 (n=12) with n=2 mice per time-point design. […] Plasma and brain samples were quantified by fit-for-purpose LC-MS/MS method (LLOQ: 1.01 ng/mL for plasma and 2.02 ng/mL for brain). […]

MAGL enzyme = molecular target: T1, MAGL enzyme (Homo sapiens, UniProt Q99685); test: MAGL reversible inhibition assay (washout), Example 22; type: biochemical; set-up: % MAGL activity returning after washout: concentration or dose not given beside the values
T1 sequence (Q99685 1-303): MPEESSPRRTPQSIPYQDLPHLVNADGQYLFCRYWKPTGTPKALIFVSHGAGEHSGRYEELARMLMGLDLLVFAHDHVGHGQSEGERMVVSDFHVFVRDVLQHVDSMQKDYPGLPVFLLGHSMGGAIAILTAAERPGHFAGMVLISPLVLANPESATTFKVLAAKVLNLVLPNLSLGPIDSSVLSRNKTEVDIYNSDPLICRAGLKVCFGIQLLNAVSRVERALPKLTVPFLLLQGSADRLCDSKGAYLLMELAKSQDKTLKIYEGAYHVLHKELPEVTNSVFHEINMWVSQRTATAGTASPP
Procedure: The reversible mechanism of MAGL inhibition of a test compound of Formula (I) can be determined. Flag-tagged MAGL enzyme will be immobilized on anti-Flag beads. Immobilized enzyme will be incubated+/−inhibitor at a dose that produces complete inhibition. Colorimetric substrate (4-NPA) will be added and the reaction monitored on a plate reader for 30 minutes to verify complete inhibition. Immobilized enzyme will then be washed thoroughly to remove the inhibitor, and fresh substrate will be added. The reaction will be monitored for an additional 30 minutes; returning enzymatic activity will indicate reversibility of inhibition. […]
For some test compounds, % activity returning after washout may be less than 100%/if complete compound unbinding takes longer than 30 minutes.

2-AG levels in brain = test: Estimation of 2-AG in mouse brain after single intraperitoneal administration, Examples 23 and 24; type: in vivo, male C57BL/6 mice; details: single IP
Procedure: (§1) This experiment was performed to determine plasma pharmacokinetics and estimate 2-AG levels in male C57BL/6 mice brain following a single intraperitoneal administration of Compound-74 (Dose: 5, 15, 50 and 150 mg/kg). The experiment was repeated at 150 mg/kg on 3 separate test dates to obtain the data shown in FIG. 1A (plasma and brain concentration of Compound 74 30 minutes after IP injection), and on the first and third test dates to obtain the data shown in FIG. 1B (brain concentration of 2-AG30 minutes after IP injection of Compound 74). • Compound 74, Molecular Wt.: 405.46 (Freebase), % Purity: Considered 100%. • Formulation: DMSO • Dose: 5, 15, 50 and 150 mg/kg • Dose volume: 2 mL/kg • Feeding regimen: freely fed • Groups:
Study Design: A total of thirty male mice were used into the study and divided in to five groups with six mice in each group (n=6 mice/group/treatment design). Animals in Group 1 to Group 4 were administered intraperitoneally with Compound 74 solution formulation at 5, 15, 50 and 150 mg/kg dose, respectively. Animals in Group 5 were administered intraperitoneally with vehicle at 2 mL/kg dose. Blood and brain samples were collected at 0.5 h post dose. […]
Analysis: Brain samples were processed for 2-AG estimation. 2-AG levels were the detected values. Plasma concentrations were determined by fit for purpose LC-MS/MS method. […]

[2] = Plasma and brain concentrations after single intraperitoneal administration, Examples 23 and 24; type: in vivo, male C57BL/6 mice; details: 0.5 h
Procedure: as §1
Study Design: A total of thirty male mice were used into the study and divided in to five groups with six mice in each group (n=6 mice/group/treatment design). Animals in Group 1 to Group 4 were administered intraperitoneally with Compound 74 solution formulation at 5, 15, 50 and 150 mg/kg dose, respectively. Animals in Group 5 were administered intraperitoneally with vehicle at 2 mL/kg dose. Blood and brain samples were collected at 0.5 h post dose. Mice were euthanized by cervical dislocation and brain samples were dissected rapidly and snap frozen in liquid nitrogen, weighed and homogenized in 2 mL of acetonitrile containing 2-AGd5. Blood samples were centrifuged at 4000 rpm for 10 minutes at 4° C. Plasma was harvested and separated in pre-labeled tubes. All samples were stored below −70° C. until bioanalysis.
Analysis: Brain samples were processed for 2-AG estimation. 2-AG levels were the detected values. Plasma concentrations were determined by fit for purpose LC-MS/MS method. LLOQ: 5.09 ng/mL (Plasma and brain)
This experiment was performed to determine plasma pharmacokinetics and estimate 2-AG levels in male C57BL/6 mice brain following a single intraperitoneal administration of Compound-473 (Dose: 20 mg/kg). • Compound 473, Molecular Wt.: 463.41 (Freebase), % Purity: >98%. • Formulation: DMSO • Dose: 20 mg/kg • Dose volume: 10 mL/kg • Feeding regimen: Food and water ad libitum • Groups:
Study Design: A total of twelve C57BL/6 male mice were used in this study. Six animals were administered intraperitoneally with solution formulation of PSY-05-00473-002 at 20 mg/kg dose. Six animals were administered vehicle (5% NMP, 5% Solutol HS15 and 90% Normal saline) intraperitoneally at 10 mL/kg dose volume. Blood samples (approximately 60 μL) were collected under light isoflurane anesthesia from a set of six mice at 0.5 h. Plasma was harvested by centrifugation of blood and stored at −70±10° C. until analysis. After blood collection, mice were euthanized by cervical dislocation and brain samples were dissected rapidly and snapped frozen in liquid nitrogen and stored at −80. To homogenize, removed brain samples from the freezer, were divided into two equal hemispheres and weighed while still in frozen condition, and begun homogenization/extraction procedure without allowing the brain samples to thaw. One part is used for PK estimation and the other part is used for 2-AG estimation.
Analysis: For PK estimation, brain samples were homogenized in 2 volumes of PBS of brain weight. Total homogenate volume was three times of the brain weight. For 2-AG estimation, the frozen brain samples were homogenized in 2 mL acetonitrile containing 2-AGd5 (8.88 nmoles) will be incubated overnight at −20° C. to precipitate proteins. Blood samples were centrifuged at 10000 rpm for 10 minutes at 4° C. All samples were stored below −70° C. until bioanalysis. Plasma and brain homogenate samples were quantified by fit-for-purpose LC-MS/MS method (LLOQ: 1.02 ng/mL for plasma and 2.03 ng/mL for brain).

[3] = test system: Acute Post-Operative Pain (Brennan) mice model; test: Acute Post-Operative Pain (Brennan) mice model, Example 26; type: in vivo, Mus Musculus C57BL/6; details: 50 & 150 mg/kg, IP; at 30, 60 & 90 min
Excerpt: The aim of this experiment was to evaluate effect of the test compounds Compound 74 and JZL-184 in Acute Post-Operative Pain (Brennan) mice model. • Mouse model: Mus Musculus & C57BL/6, male, 6-8 weeks • End points: mechanical allodynia and brain 2-AG (optional)
(§2) • Animals was anaesthetized under Isoflorane anesthesia. • Using aseptic conditions, prepared the plantar aspect of left hind paw with a 10% povidone-iodine solution and place the paw through a hole in a sterile cloth drape. Made a 0.5-cm longitudinal incision through skin and fascia of the paw with a no. 11 scalpel blade, beginning 0.2 cm from the proximal edge of the heel and extending toward the digits. • Elevated the underlying muscle with small curved forceps and incised longitudinally with the scalpel blade, keeping the muscle origin and insertion intact. • After homeostasis with gentle pressure, apposed the skin with 5-0 slik sutures. Cover the wound site.

[4] = test system: Post-Operative Pain (Brennan) mouse model; test: Chronic treatment in Post-Operative Pain (Brennan) mouse model, Example 27; type: in vivo, Mus Musculus C57BL/6; details: IP
Excerpt: The aim of this experiment was to evaluate effect of the test compounds Compound 74 and JZL-184 in after Chronic treatment in a Post-Operative Pain (Brennan) mouse model. • Mouse model: Mus Musculus & C57BL/6, male, 6-8 weeks • End points: mechanical allodynia and body weight
as §2

SMILES | AUClast [1] [ng·h/mL] | degree to which MAGL enzymatic activity returned following washout of test compounds (MAGL enzyme; pre-washout compound concentration 1 μM) | % MAGL activity returning after washout (MAGL enzyme; relative to control (no inhibitor before washout), immediately following 30 minute washout) [%] | levels of 2-AG compared to baseline (vehicle treatment) (2-AG levels in brain; 5 and 15 mg/kg dose) | levels of 2-AG compared to baseline (vehicle treatment) (2-AG levels in brain; 50 and 150 mg/kg dose groups) | Brain Plama Ratio (Kp) range ([2]; IP 5 mg/kg) | Plasma concentration range ([2]; IP 5 mg/kg) [ng/mL] | Brain Plama Ratio (Kp) range ([2]; IP 15 mg/kg) | Brain concentration range ([2]; IP 15 mg/kg) [ng/g] | Plasma concentration range ([2]; IP 15 mg/kg) [ng/mL] | Brain Plama Ratio (Kp) range ([2]; IP 50 mg/kg) | Plasma concentration range ([2]; IP 50 mg/kg) [ng/mL] | Brain Plama Ratio (Kp) range ([2]; IP 150 mg/kg) | Brain concentration range ([2]; IP 150 mg/kg) [ng/g] | Plasma concentration range ([2]; IP 150 mg/kg) [ng/mL] | mechanical allodynia (Threshold, g) vs Vehicle control [3] | mechanical allodynia (Threshold, g) vs Vehicle control ([4]; 50 mg/kg, QD×8 days) | mechanical allodynia (Threshold, g) vs Vehicle control ([4]; 50 & 150 mg/kg, single dose)
Cc1cnn(C2CC3(C2)CN(C(=O)c2cc(O)ccc2F)C3)c1-c1cc(F)ccc1F (single isomer, unassigned) [Compound 476, {6-[5-(2,5-difluorophenyl)-4-methyl-1-pyrazolyl]-2-aza-2-spiro[3.3]heptyl}(2-fluoro-5-hydroxyphenyl)methanone] | 223.64 | – | – | – | – | – | – | – | – | – | – | – | – | – | – | – | – | –
Cc1cc(C2CC3(C2)CN(C(=O)c2cc(O)ccc2F)C3)n(-c2ccccc2C)n1 [Compound 74, (2-fluoro-5-hydroxyphenyl)(6-(3-methyl-1-(o-tolyl)-1H-pyrazol-5-yl)-2-azaspiro[3.3]heptan-2-yl)methanone] | – | 162 | >50 | elevated slightly | significant increase | 0.51-0.68 | 12 to 186 | 0.16-0.44 | 25 to 67 | 70 to 414 | 0.06-0.08 | 447 to 14914 | 0.07-0.20 | 2412 to 12111 | 34920 to 70256 | significant decrease in mechanical allodynia | significant decrease in mechanical allodynia | significant decrease in mechanical allodynia
